Test systems include EKVX NSCLC; MDA-MB-435; SK-OV-3 ovarian; BT-549 breast; OVCAR-3 ovarian; HL-60(TB) leukemia; NCI/ADR-RES ovarian; UO-31 renal; OVCAR-8 ovarian; PC-3 prostate.
Common to all, as to assay: NCI tumour cell line growth inhibition, 48 h

The structures appear in SMILES notation. Several values for one entry are separate records, joined by “and”; a condition that tells them apart may be missing. Identical values can stand only once.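 96-well plates; 48 h exposure; 5 concentrations. Endpoints by linear interpolation between flanking doses. Not reached: highest tested concentration assigned. GI50: concentration for 50% inhibition of growth. TGI marks complete inhibition of growth.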

In the case of `C=C1C(=O)C2(C)OC2(C)C1C(=O)O` (stereo not given), the TGI with EKVX NSCLC, with MDA-MB-435, in the test on SK-OV-3 ovarian, with BT-549 breast, in the test with OVCAR-3 ovarian and in the test on HL-60(TB) leukemia was over 100 µM in each case. Also, the TGI in the test on NCI/ADR-RES ovarian, in the test with UO-31 renal, with OVCAR-8 ovarian and in the test on PC-3 prostate was over 100 µM throughout.
For the compound `CC(=O)C(C=O)C(C)=O.CC(=O)CC(C)=O.CC(=O)CC(C)=O.[Ru]`, the GI50 in the test on EKVX NSCLC is 18.1 µM; in the test with MDA-MB-435, 43.5 µM; with SK-OV-3 ovarian it was 76.8 µM; in the test on BT-549 breast it was 7.27 µM; in the test on OVCAR-3 ovarian it was 2.15 µM; in the test with HL-60(TB) leukemia it was 30.4 µM. Further, the GI50 in the test on NCI/ADR-RES ovarian is 21.8 µM; in the test with UO-31 renal, 26.9 µM; with OVCAR-8 ovarian, 17.4 µM; in the test with PC-3 prostate it was 13.2 µM. The TGI is 95.9 µM in the test on EKVX NSCLC; over 100 µM with MDA-MB-435; over 100 µM in the test with SK-OV-3 ovarian; 69.5 µM in the test on BT-549 breast; 26.3 µM in the test with OVCAR-3 ovarian; over 100 µM with HL-60(TB) leukemia. Also, the TGI in the test on NCI/ADR-RES ovarian is 95 µM; with UO-31 renal, over 100 µM; in the test with OVCAR-8 ovarian, over 100 µM; with PC-3 prostate it was 71.2 µM.
As for `COc1cc2c(cc1O)C1CC(CC3CCCCN31)OC(=O)/C=C\c1ccc(O)c-2c1` (stereo not given), the TGI in the test with EKVX NSCLC is over 100 µM; with MDA-MB-435, 50.8 µM; in the test with SK-OV-3 ovarian it was 96.7 µM; in the test with BT-549 breast it was 67.5 µM; in the test on OVCAR-3 ovarian it was 62 µM; in the test on HL-60(TB) leukemia it was 58.3 µM. In addition, the TGI in the test with NCI/ADR-RES ovarian worked out at 75.7 µM; with UO-31 renal, 65 µM; with OVCAR-8 ovarian it was 54.2 µM; with PC-3 prostate, 99.5 µM.
`COC(=O)C1(C)CCCC2(C)c3cc(OC)ccc3C(=O)C(Br)C12` (stereo not given): the TGI is over 10 µM in the test with EKVX NSCLC; over 10 µM in the test on MDA-MB-435; over 10 µM in the test with SK-OV-3 ovarian; over 10 µM in the test with BT-549 breast; over 10 µM with OVCAR-3 ovarian; 4.2 µM in the test with HL-60(TB) leukemia. For the same compound, the TGI in the test on NCI/ADR-RES ovarian was over 10 µM; with UO-31 renal, 3.28 µM; with OVCAR-8 ovarian, 4.54 µM; in the test on PC-3 prostate it was over 10 µM.
Turning to `COc1cccc(/C=C\c2ccnc3ccccc23)c1`, the TGI in the test on EKVX NSCLC, with MDA-MB-435, in the test on SK-OV-3 ovarian, in the test on BT-549 breast, in the test on OVCAR-3 ovarian and with HL-60(TB) leukemia was over 10 µM each time. For the same compound, the TGI with NCI/ADR-RES ovarian, in the test on UO-31 renal, with OVCAR-8 ovarian and with PC-3 prostate was over 10 µM throughout.
Consider `N=C1C(c2nc3ccccc3s2)=C(O)CN1c1cc(Cl)cc(Cl)c1`, for which the GI50 was over 100 µM in the test on EKVX NSCLC; over 100 µM in the test with MDA-MB-435; over 100 µM with SK-OV-3 ovarian; over 100 µM in the test on BT-549 breast; 88.2 µM in the test with OVCAR-3 ovarian; over 100 µM with HL-60(TB) leukemia. The GI50 is over 100 µM in the test on NCI/ADR-RES ovarian, 91.3 µM with UO-31 renal, over 100 µM with OVCAR-8 ovarian and over 100 µM in the test on PC-3 prostate. The TGI in the test with EKVX NSCLC, in the test with MDA-MB-435, in the test on SK-OV-3 ovarian, with BT-549 breast, in the test on OVCAR-3 ovarian and in the test with HL-60(TB) leukemia was over 100 µM throughout. The TGI with NCI/ADR-RES ovarian, in the test with UO-31 renal, in the test with OVCAR-8 ovarian and in the test with PC-3 prostate was over 100 µM throughout.
Turning to `CCc1ccc([O-])c(C=NCCCN(C)CCCN=Cc2cc(C)ccc2[O-])c1.[Co+3].[N-]=[N+]=[N-]`, the GI50 is 50 µg/mL and 103 µg/mL with EKVX NSCLC; 50 µg/mL in the test on MDA-MB-435; 12.9 µg/mL and 37.3 µg/mL with SK-OV-3 ovarian; 50 µg/mL in the test on BT-549 breast; 50 µg/mL and 71.1 µg/mL in the test with OVCAR-3 ovarian; 61 µg/mL in the test with HL-60(TB) leukemia. Besides, the GI50 in the test with NCI/ADR-RES ovarian was 50 µg/mL and 47.4 µg/mL; with UO-31 renal, 50 µg/mL and 84.2 µg/mL; in the test with OVCAR-8 ovarian, 31.9 µg/mL and 49.1 µg/mL; in the test with PC-3 prostate, 29.5 µg/mL. Besides, the TGI is 50 µg/mL and > 150 µg/mL in the test on EKVX NSCLC; 50 µg/mL with MDA-MB-435; 50 µg/mL and 85.9 µg/mL with SK-OV-3 ovarian; 50 µg/mL in the test with BT-549 breast; 50 µg/mL and > 150 µg/mL with OVCAR-3 ovarian; over 150 µg/mL in the test with HL-60(TB) leukemia. The TGI is 50 µg/mL and 47.4 µg/mL with NCI/ADR-RES ovarian; 50 µg/mL and > 150 µg/mL in the test on UO-31 renal; 50 µg/mL and > 150 µg/mL with OVCAR-8 ovarian; 50 µg/mL in the test on PC-3 prostate.
As to `Cc1[nH]n(-c2cccc(Cl)c2)c(=O)c1/C=C1\C=c2ccccc2=CC1=O`, the GI50 in the test on EKVX NSCLC is over 100 µM; in the test with MDA-MB-435 it was over 100 µM; in the test on SK-OV-3 ovarian it was 26.5 µM; with BT-549 breast it was 27.3 µM; with OVCAR-3 ovarian, 59.5 µM; in the test with HL-60(TB) leukemia, over 100 µM. For the same compound, the GI50 in the test on NCI/ADR-RES ovarian, in the test on UO-31 renal, in the test with OVCAR-8 ovarian and in the test on PC-3 prostate was over 100 µM in each case. The TGI with EKVX NSCLC, with MDA-MB-435, in the test on SK-OV-3 ovarian, in the test on BT-549 breast, in the test with OVCAR-3 ovarian and in the test with HL-60(TB) leukemia was over 100 µM each time. In addition, the TGI with NCI/ADR-RES ovarian, with UO-31 renal, with OVCAR-8 ovarian and in the test with PC-3 prostate was over 100 µM throughout.
With `Nc1ccc(C(=O)Nc2ccccc2N)cc1`, the TGI with EKVX NSCLC was over 100 µM; in the test on MDA-MB-435, over 100 µM; in the test with SK-OV-3 ovarian it was over 100 µM; in the test on BT-549 breast, over 100 µM; with OVCAR-3 ovarian, over 100 µM; with HL-60(TB) leukemia, 17.6 µM. The TGI in the test on NCI/ADR-RES ovarian was 19.6 µM; in the test with UO-31 renal it was over 100 µM; in the test on OVCAR-8 ovarian, over 100 µM; with PC-3 prostate it was over 100 µM.
On to `CC12CC(=O)C3C(CCC4=CC(=O)CCC43C)C1CC=C2CC(=O)O` (stereo not given), for which the TGI in the test on EKVX NSCLC, in the test with MDA-MB-435, in the test with SK-OV-3 ovarian, with BT-549 breast, in the test on OVCAR-3 ovarian and in the test with HL-60(TB) leukemia was over 100 µM in each case. Moreover, the TGI in the test with NCI/ADR-RES ovarian, in the test on UO-31 renal, in the test on OVCAR-8 ovarian and in the test with PC-3 prostate was over 100 µM each time.

(Values after PubChem BioAssay (NCI).)
